Our source for the IC50 values is patent publication US20260297087A1, “Pyridoimidazolone Compounds, Preparation Thereof and Therapeutic Uses Thereof” (Sanofi, priority 2023, published 2026).

Test [1] deals with T1, ERK5 (activated catalytic domain) (Homo sapiens, UniProt Q13164).
T1 construct: purchased CarnaBiosciences 04-146
As to the kind of experiment: Cell-Free Assay of ERK5 Inhibition (Time-Resolved FRET, 4EBP1 peptide phosphorylation). It is filed as biochemical. Conditions: for IC50: ERK5 catalytic domain 4 nM, 1 mM ATP, 1 μM biotinylated 4EBP1 peptide, 30 min at 37° C., mean where repeated, read-out: Cell-free assay (IC50 in nM). An outline of the steps: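 Activated ERK5 catalytic domain at 4 nM preincubated 30 min at room temperature with compound, then 1 mM ATP and 1 μM biotinylated 4EBP1 (aa 30-52) peptide added for 30 min at 37° C. Phosphorylation detected by TR-FRET; IC50 versus DMSO control, repeats averaged.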

For the next test, the target named is T2, ERK5 (Homo sapiens, UniProt Q13164).
T2 construct: MEF2-luciferase reporter
T2 sequence (Q13164 whole entry): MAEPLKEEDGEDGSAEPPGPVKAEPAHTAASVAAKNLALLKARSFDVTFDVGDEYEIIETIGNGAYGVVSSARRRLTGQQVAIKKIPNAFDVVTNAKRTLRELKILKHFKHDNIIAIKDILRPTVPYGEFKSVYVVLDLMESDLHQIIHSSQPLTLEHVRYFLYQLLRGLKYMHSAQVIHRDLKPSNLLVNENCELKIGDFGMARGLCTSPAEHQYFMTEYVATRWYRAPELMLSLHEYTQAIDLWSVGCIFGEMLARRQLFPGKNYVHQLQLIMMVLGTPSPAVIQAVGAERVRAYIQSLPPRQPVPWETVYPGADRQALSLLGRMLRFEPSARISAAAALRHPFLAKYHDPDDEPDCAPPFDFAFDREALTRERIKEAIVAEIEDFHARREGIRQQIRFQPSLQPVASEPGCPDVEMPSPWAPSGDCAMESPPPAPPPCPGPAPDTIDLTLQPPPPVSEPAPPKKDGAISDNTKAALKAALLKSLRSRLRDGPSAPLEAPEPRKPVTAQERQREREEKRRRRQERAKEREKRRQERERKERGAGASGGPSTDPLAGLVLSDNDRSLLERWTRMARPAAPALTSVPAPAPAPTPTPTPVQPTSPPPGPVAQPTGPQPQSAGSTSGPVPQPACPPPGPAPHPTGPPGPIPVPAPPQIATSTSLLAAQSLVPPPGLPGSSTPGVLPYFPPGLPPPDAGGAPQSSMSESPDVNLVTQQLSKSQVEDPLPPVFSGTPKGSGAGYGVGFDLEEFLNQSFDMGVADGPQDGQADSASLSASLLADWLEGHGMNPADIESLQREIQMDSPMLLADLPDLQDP
Put plainly: Inhibition of Cellular ERK5 Activity (cell-based assay, MEF2 luciferase reporter in SN12C cells). The settings on record: renal cancer cell line SN12C, doxycycline-induced MEKSDD, mean where repeated. An outline of the steps: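 SN12C cells carrying a MEF2-luciferase reporter and doxycycline-inducible (1 μg/ml) constitutively active MEK5DD, seeded 24 h before compound addition at 0.3–1000 nM (0.1% DMSO final). Luminescence read; IC50 is the concentration giving 50% signal reduction versus DMSO-treated cells.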

Molecules are shown by their SMILES. pIC50: −log10 of the molar value. Read-outs that look alike come from different tables or passages of the source.

T1 sequence (Q13164 55-347 limits assumed): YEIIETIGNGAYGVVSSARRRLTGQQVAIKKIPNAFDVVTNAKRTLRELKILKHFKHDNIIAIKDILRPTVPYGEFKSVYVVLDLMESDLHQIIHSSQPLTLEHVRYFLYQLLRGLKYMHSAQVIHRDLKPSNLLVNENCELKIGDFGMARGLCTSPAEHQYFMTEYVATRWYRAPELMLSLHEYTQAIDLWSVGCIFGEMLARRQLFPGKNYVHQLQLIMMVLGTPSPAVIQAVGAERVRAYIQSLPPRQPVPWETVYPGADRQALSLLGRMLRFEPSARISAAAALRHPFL

Turning to `CO[C@H]1CC[C@H](c2cnc3[nH]c(=O)n(C4CCN(C(=O)c5ccc(OC(F)(F)F)cc5N)CC4)c3c2)CC1` [Example 45, trans-1-[1-[2-amino-4-(trifluoromethoxy)benzoyl]-4-piperidyl]-6-(4-methoxycyclohexyl)-3H-imidazo[4,5-b]pyridin-2-one], the IC50 (commonly the point on the concentration scale where inhibition reaches its midpoint) was determined as 107 nM in test [1] and 29 nM against ERK5.

Take `O=C(c1ccc(OC(F)(F)F)cc1O)N1CCC(n2c(=O)[nH]c3ncc(C4CCOCC4)cc32)CC1` [Example 18, 1-[1-[2-Hydroxy-4-(trifluoromethoxy)benzoyl]-4-piperidyl]-6-tetrahydropyran-4-yl-3H-imidazo[4,5-b]pyridin-2-one]: the results for the IC50 (in test [1]; against ERK5) were 54 nM and 90 nM, respectively. Besides, the pIC50 (as a rule, the negative decadic logarithm of the IC50, by convention in mol/L) in test [1] (footnote: repeat measurement, mean average value, read-out: Cell-free assay IC50, repeat measurement) was 7.09.

Take `Nc1cc(OC(F)(F)F)ccc1C(=O)N1CCC(n2c(=O)[nH]c3ncc(C4CCC4)cc32)CC1` [Example 29, 1-[1-[2-amino-4-(trifluoromethoxy)benzoyl]-4-piperidyl]-6-cyclobutyl-3H-imidazo[4,5-b]pyridin-2-one]: the IC50 in test [1] is 420 nM; on ERK5 it was 213 nM.

Consider `CN1CCC(Oc2cnc3[nH]c(=O)n(C4CCN(C(=O)c5ccc(OC(F)(F)F)cc5N)CC4)c3c2)C1` (racemic) [Example 6, (rac)-1-[1-[2-amino-4-(trifluoromethoxy)benzoyl]-4-piperidyl]-6-(1-methylpyrrolidin-3-yl)oxy-3H-imidazo[4,5-b]pyridin-2-one], for which the figures for the IC50 (in test [1]; against ERK5) were 77 nM and 150 nM, respectively.

For the molecule `Nc1cc(OC(F)(F)F)ccc1C(=O)N1CCC(n2c(=O)[nH]c3ncc(C4CCOC4)cc32)CC1` (racemic) [Example 16, (rac)-1-[1-[2-Amino-4-(trifluoromethoxy)benzoyl]-4-piperidyl]-6-tetrahydrofuran-3-yl-3H-imidazo[4,5-b]pyridin-2-one], the IC50 in test [1] was found to be 85 nM; at ERK5, 138 nM.

In the case of `CO[C@H]1CC[C@@H](c2cnc3[nH]c(=O)n(C4CCN(C(=O)c5ccc(OC(F)(F)F)cc5)CC4)c3c2)CC1` [Example 27, cis-6-(4-methoxycyclohexyl)-1-[1-[4-(trifluoromethoxy)benzoyl]-4-piperidyl]-3H-imidazo[4,5-b]pyridin-2-one], the IC50 in test [1] stood at 1180 nM; against ERK5 it was 536 nM.

Turning to `Nc1cc(OC(F)(F)F)ccc1C(=O)N1CCC(n2c(=O)[nH]c3ncc(C4CCNC(=O)C4)cc32)CC1` (racemic) [Example 22, (rac)-1-[1-[2-amino-4-(trifluoromethoxy)benzoyl]-4-piperidyl]-6-(2-oxo-4-piperidyl)-3H-imidazo[4,5-b]pyridin-2-one], the IC50 worked out at 684 nM in test [1] and 140 nM against ERK5.
